Assay results as given in patent US9833497B2, “Human originated EGF domain proteins and use of the same” (CHENGDU SOURCEBIO LIMITED-LIABILITY COMPANY, priority 2013, dated 2017).

Tests used:
Type in all cases: cell-based
E. coli DH5α = experiment: Antibacterial activity: MIC and growth curve against E. coli DH5α in 96-well plate; conditions: minimal inhibitory concentration against E. coli DH5α; 96-well plate, 5×10^5 CFU/mL, 37° C., judged after 8 h
How it was run: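 Log-phase DH5α (OD600 about 0.5, 37° C, 185 rpm in LB) was pelleted, resuspended in fresh LB and seeded at 5×10^5 CFU/mL with recombinant protein at 50, 25 and 12.5 μg/mL (two-fold series), in triplicate. Plates were shaken at 175 rpm, 37° C, and OD600 was read every 30 min. MIC was the lowest concentration with no growth.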

Klebsiella pneumonia = experiment: MIC against Gram-negative bacteria: Klebsiella pneumonia; conditions: 96-well plate, 5×10^5 CFU/mL, 37° C., 10 h
How it was run: (§1)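 Bacteria grown in LB at 37° C with shaking to McFarland 0.5, pelleted and resuspended in fresh LB, then seeded at 5×10^5 CFU/mL per well. Purified recombinant human EGF domain proteins were two-fold serially diluted in triplicate and plates shaken at 37° C, 175 rpm. MIC is the lowest protein concentration with no bacterial growth.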

Proteus vulgaris = experiment: MIC against Gram-negative bacteria: Proteus vulgaris; conditions: 96-well plate, 5×10^5 CFU/mL, 37° C., 10 h
How it was run: as §1

Aeromonas hydrophila = experiment: MIC against Gram-negative bacteria: Aeromonas hydrophila; conditions: 96-well plate, 5×10^5 CFU/mL, 37° C., 10 h
How it was run: as §1

Citrobacter diversus = experiment: MIC against Gram-negative bacteria: Citrobacter diversus; conditions: 96-well plate, 5×10^5 CFU/mL, 37° C., 10 h
How it was run: as §1

E. coli BL21 = experiment: MIC against Gram-negative bacteria: E. coli BL21; conditions: 96-well plate, 5×10^5 CFU/mL, 37° C., 10 h
How it was run: as §1

Moraxella catarrhalis = experiment: MIC against Gram-negative bacteria: Moraxella catarrhalis; conditions: 96-well plate, 5×10^5 CFU/mL, 37° C., 10 h
How it was run: as §1

Enterobacter cloacae = experiment: MIC against Gram-negative bacteria: Enterobacter cloacae; conditions: 96-well plate, 5×10^5 CFU/mL, 37° C., 10 h
How it was run: as §1

Proteus mirabilis = experiment: MIC against Gram-negative bacteria: Proteus mirabilis; conditions: 96-well plate, 5×10^5 CFU/mL, 37° C., 10 h
How it was run: as §1

Pseudomonas aeruginosa = experiment: MIC against Gram-negative bacteria: Pseudomonas aeruginosa; conditions: 96-well plate, 5×10^5 CFU/mL, 37° C., 10 h
How it was run: as §1

Serratia marcescens = experiment: MIC against Gram-negative bacteria: Serratia marcescens; conditions: 96-well plate, 5×10^5 CFU/mL, 37° C., 10 h
How it was run: as §1

Substance | MIC (E. coli DH5α) | MIC K. pneumonia (Klebsiella pneumonia) | MIC P. vulgaris (Proteus vulgaris) | MIC A. hydrophila (Aeromonas hydrophila) | MIC C. diversus (Citrobacter diversus) | MIC E. coli BL21 (E. coli BL21) | MIC M. catarrhalis (Moraxella catarrhalis) | MIC E. cloacae (Enterobacter cloacae) | MIC P. mirabilis (Proteus mirabilis) | MIC P. aeruginosa (Pseudomonas aeruginosa) | MIC S. marcescens (Serratia marcescens)
PRT645 (EINECTVNPDICGAGHCINLPVRYTCICYEGYRFSEQQ; listed as Homo sapiens) | 50 µg/mL | 25 µg/mL | 50 µg/mL | 25 µg/mL | 12.5 µg/mL | 25 µg/mL | 50 µg/mL | 50 µg/mL | 12.5 µg/mL | 12.5 µg/mL | 12.5 µg/mL
PRT646 (DIDECTQVQHLCSQGRCENTEGSFLCICPAGFMASEEGTNCI; listed as Homo sapiens) | 12.5 µg/mL | 12.5 µg/mL | 25 µg/mL | 25 µg/mL | 50 µg/mL | 12.5 µg/mL | 25 µg/mL | 12.5 µg/mL | 12.5 µg/mL | 12.5 µg/mL | 50 µg/mL
PRT647 (DVDECLRPDVCGEGHCVNTVGAFRCEYCDSGYRMTQRGRCE; listed as Homo sapiens) | 25 µg/mL | 50 µg/mL | 50 µg/mL | 50 µg/mL | 12.5 µg/mL | 12.5 µg/mL | 50 µg/mL | 12.5 µg/mL | 12.5 µg/mL | 25 µg/mL | 25 µg/mL
PRT648 (DIDECLNPSTCPDEQCVNSPGSYQCVPCTEGFRGWNGQCL; listed as Homo sapiens) | 12.5 µg/mL | 25 µg/mL | 50 µg/mL | 50 µg/mL | 12.5 µg/mL | 25 µg/mL | 50 µg/mL | 12.5 µg/mL | 12.5 µg/mL | 50 µg/mL | 12.5 µg/mL
PRT649 (DVDECLEPNVCANGDCSNLEGSYMCSCHKGYTRTPDHKHCR; listed as Homo sapiens) | 50 µg/mL | 12.5 µg/mL | 50 µg/mL | 12.5 µg/mL | 50 µg/mL | 12.5 µg/mL | 12.5 µg/mL | 50 µg/mL | 25 µg/mL | 50 µg/mL | 25 µg/mL
PRT650 (DIDECQQGNLCVNGQCKNTEGSFRCTCGQGYQLSAAKDQCE; listed as Homo sapiens) | 12.5 µg/mL | 12.5 µg/mL | 12.5 µg/mL | 25 µg/mL | 12.5 µg/mL | 25 µg/mL | 25 µg/mL | 50 µg/mL | 50 µg/mL | 50 µg/mL | 50 µg/mL
PRT652 (DLDECAFPGVCPSGVCTNTAGSFSCKDCDGGYRPSPLGDSCE; listed as Homo sapiens) | 12.5 µg/mL | 25 µg/mL | 25 µg/mL | 25 µg/mL | 50 µg/mL | 25 µg/mL | 25 µg/mL | 12.5 µg/mL | 12.5 µg/mL | 50 µg/mL | 50 µg/mL
PRT653 (DVDECEDPQSSCLGGECKNTVGSYQCLCPQGFQLANGTVCE; listed as Homo sapiens) | 25 µg/mL | 50 µg/mL | 50 µg/mL | 12.5 µg/mL | 50 µg/mL | 12.5 µg/mL | 25 µg/mL | 25 µg/mL | 12.5 µg/mL | 25 µg/mL | 25 µg/mL
PRT654 (DVNECMGEEHCAPHGECLNSHGSFFCLCAPGFVSAEGGTSCQ; listed as Homo sapiens) | 12.5 µg/mL | 50 µg/mL | 12.5 µg/mL | 50 µg/mL | 12.5 µg/mL | 50 µg/mL | 50 µg/mL | 12.5 µg/mL | 25 µg/mL | 12.5 µg/mL | 25 µg/mL
PRT655 (DVDECATTDPCVGGHCVNTEGSFNCLCETGFQPSPESGECV; listed as Homo sapiens) | 25 µg/mL | 25 µg/mL | 12.5 µg/mL | 25 µg/mL | 12.5 µg/mL | 50 µg/mL | 50 µg/mL | 50 µg/mL | 25 µg/mL | 12.5 µg/mL | 25 µg/mL
PRT658 (DVNECELMLAVCGAALCENVEGSFLCLCASDLEEYDAQEGHCR; listed as Homo sapiens) | 12.5 µg/mL | 25 µg/mL | 50 µg/mL | 25 µg/mL | 50 µg/mL | 25 µg/mL | 12.5 µg/mL | 12.5 µg/mL | 25 µg/mL | 50 µg/mL | 12.5 µg/mL
PRT659 (DADECVIFGPGLCPNGRCLNTVPGYVCLCNPGFHYDASHKKCE; listed as Homo sapiens) | 25 µg/mL | 12.5 µg/mL | 25 µg/mL | 50 µg/mL | 25 µg/mL | 50 µg/mL | 25 µg/mL | 25 µg/mL | 12.5 µg/mL | 25 µg/mL | 50 µg/mL
PRT660 (DHDECQDLACENGECVNTEGSFHCFCSPPLTLDLSQQRCM; listed as Homo sapiens) | 12.5 µg/mL | 12.5 µg/mL | 50 µg/mL | 12.5 µg/mL | 50 µg/mL | 50 µg/mL | 12.5 µg/mL | 50 µg/mL | 25 µg/mL | 12.5 µg/mL | 12.5 µg/mL
PRT661 (QAEECGILNGCENGRCVRVREGYTCDCFEGFQLDAAHMACV; listed as Homo sapiens) | 50 µg/mL | 25 µg/mL | 25 µg/mL | 25 µg/mL | 12.5 µg/mL | 25 µg/mL | 25 µg/mL | 50 µg/mL | 50 µg/mL | 12.5 µg/mL | 25 µg/mL
